Experimental data taken from PubChem BioAssay (NCI).
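Five compound concentrations were applied to cells in 96-well plates for 48 hours; endpoints were derived by simple linear interpolation of the resulting dose-response curve. GI50 = concentration required for 50% inhibition of growth. TGI: concentration producing complete growth inhibition.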

Experiments:
Assay in all cases: inhibition of tumour cell growth, NCI panel, 48 h
[1] = test system: UO-31 renal
[2] = test system: TK-10 renal
[3] = test system: U251 CNS
[4] = test system: SF-268 CNS
[5] = test system: DU-145 prostate
[6] = test system: SR leukemia
[7] = test system: LOX IMVI melanoma
[8] = test system: SN12C renal
[9] = test system: NCI-H226 lung
[10] = test system: HOP-62 NSCLC

Row | SMILES | TGI [1] [µM] | TGI [2] [µM] | TGI [3] [µM] | TGI [4] [µM] | TGI [5] [µM] | TGI [6] [µM] | TGI [7] [µM] | TGI [8] [µM] | TGI [9] [µM] | TGI [10] [µM] | GI50 [1] [µM] | GI50 [2] [µM] | GI50 [3] [µM] | GI50 [4] [µM] | GI50 [6] [µM] | GI50 [8] [µM] | GI50 [9] [µM] | GI50 [5] [µM] | GI50 [10] [µM] | GI50 [7] [µM]
1 | COc1ccc2c3c([nH]c2c1)[C@H](C=C(C)C)N1C(=O)[C@@H]2CCCN2C(=O)[C@@H]1C3 | > 100 | > 100 | > 100 | > 100 | > 100 | > 100 | > 100 | > 100 | > 100 | > 100 | – | – | – | – | – | – | – | – | – | –
2 | Nc1ccc(Cc2ccc(N)c(C(=O)O)c2)cc1C(=O)O | > 100 | > 100 | > 100 | > 100 | – | > 100 | > 100 | > 100 | > 100 | > 100 | – | – | – | – | – | – | – | – | – | –
3 | COc1cc2cc[n+](C)c(Cc3ccc(Oc4cc(Cc5c6cc(OC)c(OC)cc6cc[n+]5C)ccc4OC)cc3)c2cc1OC | > 100 | > 100 | > 100 | > 100 | > 100 | > 100 | > 100 | > 100 | > 100 | > 100 | – | – | – | – | – | – | – | – | – | –
4 | CCCCSCCC(N)P(=O)(O)O (stereo unspecified) | > 100 | > 100 | > 100 | – | > 100 | > 100 | > 100 | > 100 | > 100 | > 100 | – | – | – | – | – | – | – | – | – | –
5 | O=S(C(c1ccccc1)=P(c1ccccc1)(c1ccccc1)c1ccccc1)c1ccc(Cl)cc1 (stereo unspecified) | > 100 | > 100 | > 100 | 87.9 | 42.7 | > 100 | > 100 | – | > 100 | 64.6 | – | – | – | – | – | – | – | – | – | –
6 | Cc1ccc(S(=O)(=O)Nc2cc(=O)[nH]c3c2CCC3)cc1 | > 100 | > 100 | > 100 | > 100 | > 100 | > 100 | > 100 | > 100 | > 100 | > 100 | – | – | – | – | – | – | – | – | – | –
7 | C[C@]12O[C@@]3(C)O[C@@]3(C)[C@]3(C)O[C@]3(C)[C@@]1(C)O2 | > 100 | > 100 | > 100 | > 100 | > 100 | > 100 | > 100 | > 100 | > 100 | > 100 | – | – | – | – | – | – | – | – | – | –
8 | O=C(NN1CCCCC1)c1cc2cc(CCl)ccc2oc1=O | 35.3 | 35.5 | 31.6 | 32.9 | > 100 | 67.8 | 35.9 | 38.7 | 45.3 | 40.5 | – | – | – | – | – | – | – | – | – | –
9 | CCCC(=O)Nc1cc(/C=C/C(=O)N2CC(CCl)c3c2cc(OC(C)=O)c2[nH]cc(C)c32)n(C)c1 (stereo unspecified) | – | – | 0.105 | < 2.5e-05 | 0.00453 | > 0.25 | > 0.25 | 0.00519 | 0.000748 | 0.00389 | – | – | – | – | – | – | – | – | – | –
10 | C=CCc1cccc(/C(O)=C/C(=O)/C=C/c2ccccc2Cl)c1O | 32.7 | > 100 | > 63.1 | > 100 | > 100 | 16 | 24.6 | > 100 | > 75.6 | 61.2 | – | – | – | – | – | – | – | – | – | –
11 | CN(CCCN1CCCC1)CCCN(C)C(=O)Cc1ccc(Cl)c(Cl)c1 | 9.64 | 32.1 | 29.7 | > 51.5 | > 100 | 28.2 | 27.9 | 70.2 | 48 | 51 | – | – | – | – | – | – | – | – | – | –
12 | CCOC(=O)c1cccc(N=Nc2ncc(/C=C/C(=O)OC)[nH]2)c1 | 72 | > 100 | > 100 | > 100 | > 100 | > 100 | 51 | 48.5 | > 100 | 51.3 | – | – | – | – | – | – | – | – | – | –
13 | COc1ccc(-n2nnc3c(C#N)c(C)c(-c4ccccc4)n3c2=O)cc1 | > 100 | > 100 | > 41.5 | > 100 | 8 | > 100 | > 100 | > 63.7 | > 100 | > 100 | – | – | – | – | – | – | – | – | – | –
14 | CC(NC(=O)c1ccc(OP(=O)(OCc2ccc([N+](=O)[O-])o2)N(C)CCCCCl)cc1)c1ccc(OCC2CCCCC2)c(C(N)=O)c1 (stereo unspecified) | 6.39 | 60.9 | > 32.3 | 10.9 | > 29 | 4.43 | 5.43 | 6.15 | 26.2 | 36.7 | – | – | – | – | – | – | – | – | – | –
15 | COc1cc(/C=C2\CC3C4CC[C@H]5C[C@@H](O)CC[C@]5(C)C4CC[C@]3(C)\C2=N\O)cc(OC)c1OC (stereo partly specified) | 17.4 | > 100 | 30.9 | > 100 | > 100 | – | 64.2 | 41.9 | 45.1 | 38.9 | – | – | – | – | – | – | – | – | – | –
16 | CS(=O)(=O)Nc1ccc(NCc2cnc3ccc4[nH]cccc4c23)cc1 | 78.2 | 94.8 | 68.9 | 61.8 | 71.3 | 47.7 | > 100 | 88.8 | > 100 | > 100 | – | – | – | – | – | – | – | – | – | –
17 | NC(N)=N/N=C/c1c(-c2cccs2)nc2n1CCS2 | > 100 | 46.5 | 30.1 | 53.3 | – | 34 | – | 32.4 | 31.8 | – | 70.4 | 18.3 | 16.6 | 25.5 | 17.6 | 12.5 | 15.9 | – | – | –
18 | Cc1c2ccccc2cc2cccc[n+]12 | 83.5 | > 100 | – | 40.4 | > 100 | > 100 | > 100 | > 100 | – | > 100 | – | – | – | – | – | – | – | – | – | –

Row | SMILES | TGI [1] [µM] | TGI [2] [µM] | TGI [3] [µM] | TGI [4] [µM] | TGI [5] [µM] | TGI [6] [µM] | TGI [7] [µM] | TGI [8] [µM] | TGI [9] [µM] | TGI [10] [µM] | GI50 [1] [µM] | GI50 [2] [µM] | GI50 [3] [µM] | GI50 [4] [µM] | GI50 [6] [µM] | GI50 [8] [µM] | GI50 [9] [µM] | GI50 [5] [µM] | GI50 [10] [µM] | GI50 [7] [µM]
19 | OC1CCSc2ccccc21 (stereo unspecified) | > 100 | – | > 100 | > 100 | – | > 100 | > 100 | > 100 | > 100 | > 100 | – | – | – | – | – | – | – | – | – | –
20 | CC(C)C(=O)CC(c1ccc(Br)cc1)N1N=C(C(C)C)CC1c1ccc(Br)cc1 (stereo unspecified) | > 100 | > 100 | > 100 | > 100 | – | > 100 | > 100 | > 100 | > 100 | > 100 | – | – | – | – | – | – | – | – | – | –
21 | Oc1ccc(Cl)cc1C1=Nn2c(COc3ccc4c(c3)CCCC4)nnc2SC1 | 23.4 | 20.1 | 35.3 | 35 | 40 | – | 29.3 | 19.9 | – | 27.5 | – | – | – | – | – | – | – | – | – | –
22 | CN(C)c1ccc(/C=C2\C[C@H]3[C@@H]4CC=C5C[C@@H](O)CC[C@]5(C)[C@H]4CC[C@]3(C)[C@H]2O)cc1 | 36.9 | 33.7 | 22.6 | 34.8 | > 100 | > 100 | 27.1 | 40 | 34.7 | > 100 | – | – | – | – | – | – | – | – | – | –
23 | COc1cc(S(=O)(=O)Nc2ccc(-c3csc(/N=C\c4cccc(Oc5ccccc5)c4)n3)cc2)ccc1Cl | > 100 | – | – | > 100 | 61.7 | 81.9 | 39 | 96.7 | > 100 | > 100 | – | – | – | – | – | – | – | – | – | –
24 | CS(=O)(=O)Nc1cccc(-c2ccc3ncnc(Nc4cncc(Cl)c4)c3c2)c1 | – | 5.44 | 4.18 | > 100 | > 100 | 5.47 | – | > 100 | 8.23 | 17.8 | – | 0.748 | 1.64 | 2.26 | 1.67 | 2.63 | 2.21 | 1.16 | 2.7 | –
25 | Nc1csc(-c2scc3c2OCCO3)c1N | 33.4 | 87.3 | 29.3 | 47.5 | 53.8 | > 100 | 30.9 | 37.4 | 42.9 | 42.6 | – | – | – | – | – | – | – | – | – | –
26 | CC(CCCCNC(=O)OC(C)(C)C)NC(=O)NC(C)CCCCNC(=O)OC(C)(C)C (stereo unspecified) | > 100 | > 100 | > 100 | > 100 | > 100 | > 100 | > 100 | > 100 | > 100 | > 100 | – | – | – | – | – | – | – | – | – | –
27 | Cc1cc(=O)[nH]c(S(=O)(=O)NC(=O)Nc2cccc(Cl)c2)n1 | 13.9 | > 100 | > 100 | > 100 | > 100 | > 100 | > 100 | > 100 | > 100 | > 100 | – | – | – | – | – | – | – | – | – | –
28 | CN(CCN1C(=O)c2cccc3cccc(c23)C1=O)CCN1C(=O)c2cccc3cccc(c23)C1=O | 28.8 | 27.7 | 24.7 | > 100 | > 100 | 13 | > 100 | > 100 | 75.2 | 26.4 | – | – | – | – | – | – | – | – | – | –
29 | CC12OC(C(=O)C13CCC3)C1C(=O)c3c(O)ccc(O)c3C(=O)C12 (stereo unspecified) | 9.06 | 1.57 | > 22.8 | 26.3 | 19.5 | 2.23 | > 100 | 0.0729 | > 100 | 15.6 | 2.82 | 0.587 | 2.47 | 7.96 | 0.29 | 0.0256 | > 100 | 5.01 | 3.01 | 2.33
30 | CC(C)(C)COS(=O)OCC(C)(C)C | > 100 | > 100 | > 100 | > 100 | > 100 | > 100 | > 100 | > 100 | > 100 | > 100 | – | – | – | – | – | – | – | – | – | –
31 | O=C1/C(=C/c2ccc([N+](=O)[O-])cc2)Sc2scc(-c3cccc([N+](=O)[O-])c3)[n+]21 | 22 | 17.8 | 25.6 | 7.75 | 23.7 | – | 8.03 | 17.3 | 29.9 | 33.9 | – | – | – | – | – | – | – | – | – | –
32 | CN(CCc1ccccn1)c1ccc2c(c1)Cc1ccccc1-2 | > 100 | > 100 | 22.6 | > 100 | > 100 | – | > 100 | > 100 | 40.5 | 44.6 | – | – | – | – | – | – | – | – | – | –
33 | Fc1c(F)c(F)c(CSc2nc3ccccc3[nH]2)c(F)c1F | > 100 | > 100 | > 100 | > 100 | > 100 | > 100 | > 100 | > 100 | > 100 | > 100 | – | – | – | – | – | – | – | – | – | –
34 | C#C[C@]1(O)[C@@H](CO)O[C@@H](n2ccc(=O)[nH]c2=O)[C@@H]1O | 0.183 | > 100 | > 100 | – | 0.695 | > 100 | 1.57 | – | 2.66 | 1.05 | – | – | – | – | – | – | – | – | – | –
35 | C/C=C/C(O)P(=O)(OC)OC (stereo unspecified) | 0.334 | 1.45 | 0.872 | 0.914 | 1.49 | > 100 | 0.392 | 1.79 | 1.39 | 2.23 | – | – | – | – | – | – | – | – | – | –
